In patent publication US20250034182A1, “PHOSPHOLIPID COMPOUNDS AND METHODS OF MAKING AND USING THE SAME” (priority 2021, published 2025):

Test: in vitro
Format: cell-based
Details: human
Protocol: H1-HeLa cell viability was measured using the CellTiter-Glo® Luminescent Cell Viability Assay kit (Promega, Cat #G7573) according to the manufacturer's protocol. H1-HeLa cells were maintained in Dulbecco's Modified Eagle's Medium with high glucose (Gibco, Cat #: 11995073) supplemented with 10% FBS (HyClone, Cat #: SH303396.03), 100 units/mL penicillin and 100 µg/mL streptomycin (Gibco, Cat #: 15140122). One day before compound treatment, H1-HeLa cells were seeded at […] into 96-well plates (Corning, Cat #3904) in Opti-MEM (Gibco, Cat #: 31985070) supplemented with 2% FBS, and were incubated at 37° C. in a 100% humid atmosphere containing 5% (v/v) CO2. After overnight incubation, the cells were treated with three-fold serial dilutions of the compound. At 96 hours post treatment, CellTiter-Glo reagents were added into each well and luminescence signals were recorded by an EnVision plate reader. The relative cell viability was calculated by normalizing the absorbance of the compound-treated groups to that of the DMSO-treated groups (set as 100% viability) and 10 μM puromycin treated groups (set as 0% viability). The CC50 (compound concentration for reducing 50% of cell viability) was calculated using a nonlinear regression model (four parameters).

Q: With `CCCCCCCCCCCCCCCCCCC[C@H](COP(=O)(O)OC[C@@]1(C#N)O[C@@H](c2ccc3c(N)ncnn23)[C@H](O)[C@@H]1O)Oc1ccc(C#N)c(OC(C)C)c1` [Compound 38, ((2R,3S,4R,5S)-5-(4-aminopyrrolo[2,1-f][1,2,4]triazin-7-yl)-2-cyano-3,4-dihydroxytetrahydrofuran-2-yl)methyl ((R)-2-(4-cyano-3-isopropoxyphenoxy)henicosyl) hydrogen phosphate] as the compound, how does the CC50 at 96 h read?
A: 6.19 µM

Q: Which CC50 at 96 h does the source give for `CCCCCCCCCCCCCCCCCCOCC(COc1cc(F)cc(C#N)c1)COP(=O)(O)OC[C@@]1(C#N)O[C@@H](c2ccc3c(N)ncnn23)[C@H](O)[C@@H]1O` (stereo partly drawn) [Compound 43, ((2R,3S,4R,5S)-5-(4-aminopyrrolo[2,1-f][1,2,4]triazin-7-yl)-2-cyano-3,4-dihydroxytetrahydrofuran-2-yl)methyl (3-(3-cyano-5-fluorophenoxy)-2-((octadecyloxy)methyl)propyl) hydrogen phosphate] here?
A: 4 µM

Q: Which CC50 at 96 h does the source give for `CCCCCCCCCCCCCCCCCCC[C@H](COP(=O)(O)OC[C@@]1(C#N)O[C@@H](c2ccc3c(N)ncnn23)[C@H](O)[C@@H]1O)OCc1cc(F)cc(C#N)c1` [Compound 25, ((2R,3S,4R,5S)-5-(4-aminopyrrolo[2,1-f][1,2,4]triazin-7-yl)-2-cyano-3,4-dihydroxytetrahydrofuran-2-yl)methyl ((R)-2-((3-cyano-5-fluorobenzyl)oxy)henicosyl) hydrogen phosphate] here?
A: 8.49 µM

Q: For `CCCCCCCCCCCCCCCCCCCC[C@H](COP(=O)(O)OC[C@@]1(C#N)O[C@@H](c2ccc3c(N)ncnn23)[C@H](O)[C@@H]1O)OCc1cc(F)cc(C#N)c1` [Compound 34, ((2R,3S,4R)-5-(4-aminopyrrolo[2,1-f][1,2,4]triazin-7-yl)-2-cyano-3,4-dihydroxytetrahydrofuran-2-yl)methyl ((R)-2-((3-cyano-5-fluorobenzyl)oxy)docosyl) hydrogen phosphate], which CC50 at 96 h is on record?
A: 4.69 µM

Q: For `CCCCCCCCCCCCCCCCCCOC[C@H](COP(=O)(O)OC[C@@]1(C#N)O[C@@H](c2ccc3c(N)ncnn23)[C@H](O)[C@@H]1O)Oc1ccc(C#N)c(OC(C)C)c1` [Compound 23, ((2R,3S,4R,5S)-5-(4-aminopyrrolo[2,1-f][1,2,4]triazin-7-yl)-2-cyano-3,4-dihydroxytetrahydrofuran-2-yl)methyl ((R)-2-(4-cyano-3-isopropoxyphenoxy)-3-(octadecyloxy)propyl) hydrogen phosphate], which CC50 at 96 h is on record?
A: 10.8 µM

Q: For `CCCCCCCCCCCCCCCCOC[C@@H](COP(=O)(O)OC[C@@]1(C#N)O[C@@H](c2ccc3c(N)ncnn23)[C@H](O)[C@@H]1O)OCc1cc(F)cc(C#N)c1` [Compound 88, ((2R,3S,4R,5S)-5-(4-aminopyrrolo[2,1-f][1,2,4]triazin-7-yl)-2-cyano-3,4-dihydroxytetrahydrofuran-2-yl)methyl ((S)-2-((3-cyano-5-fluorobenzyl)oxy)-3-(hexadecyloxy)propyl) hydrogen phosphate], which CC50 at 96 h is on record?
A: 2.21 µM

Q: For `CCCCCCCCCCCCCCCCCCC[C@H](COP(=O)(O)OC[C@@]1(C#N)O[C@@H](c2ccc3c(N)ncnn23)[C@H](O)[C@@H]1O)OCc1ccc(C#N)c(OC(C)C)c1` [Compound 28, ((2R,3S,4R,5S)-5-(4-aminopyrrolo[2,1-f][1,2,4]triazin-7-yl)-2-cyano-3,4-dihydroxytetrahydrofuran-2-yl)methyl ((R)-2-((4-cyano-3-isopropoxybenzyl)oxy)henicosyl) hydrogen phosphate], which CC50 at 96 h is on record?
A: 9.9 µM

Q: Which CC50 at 96 h does the source give for `CCCCCCCCCCCCCCCCCC[C@H](COP(=O)(O)OC[C@@]1(C#N)O[C@@H](c2ccc3c(N)ncnn23)[C@H](O)[C@@H]1O)OCc1cc(F)cc(C#N)c1` [Compound 84, ((2R,3S,4R,5S)-5-(4-aminopyrrolo[2,1-f][1,2,4]triazin-7-yl)-2-cyano-3,4-dihydroxytetrahydrofuran-2-yl)methyl ((R)-2-((3-cyano-5-fluorobenzyl)oxy)icosyl) hydrogen phosphate] here?
A: 1.82 µM

Q: With `CCCCCCCCCCCCCCCCC[C@H](COP(=O)(O)OC[C@@]1(C#N)O[C@@H](c2ccc3c(N)ncnn23)[C@H](O)[C@@H]1O)OCc1cc(Cl)cc(C#N)c1` [Compound 76, ((2R,3S,4R)-5-(4-aminopyrrolo[2,1-f][1,2,4]triazin-7-yl)-2-cyano-3,4-dihydroxytetrahydrofuran-2-yl)methyl ((R)-2-((3-chloro-5-cyanobenzyl)oxy)nonadecyl) hydrogen phosphate] as the compound, how does the CC50 at 96 h read?
A: 6.39 µM

Test: HCV Replicon 1B CC50, calcein AM (Example Q)
Format: cell-based
Details: HCV replicon cells (1B), calcein AM fluorescence, read-out: HCV Replicon 1B CC50 (nM) (per Ex. Q)
Protocol: Compounds were serially diluted in ten steps of 1:3 dilutions in 384-well plates. All serial dilutions were performed in four replicates per compound within the same 384-well plate. An HCV protease inhibitor ITMN-191 at […] was added as a control of 100% inhibition of HCV replication while puromycin at 10 mM was included as a control of 100% cytotoxicity. To each well of a black polystyrene 384-well plate (Greiner Bio-one, Monroe, NC), 90 μL of cell culture medium (without Geneticin) containing 2000 suspended HCV replicon cells was added with a Biotek μFlow workstation. For compound transfer into cell culture plates, 0.4 μL of compound solution from the compound serial dilution plate was transferred to the cell culture plate on a Biomek FX workstation. The DMSO concentration in the final assay wells was 0.44%. The plates were incubated for 3 days at 37° C. with 5% CO2 and 85% humidity. The HCV replicon assay was a multiplex assay, able to assess both cytotoxicity and antireplicon activity from the same well. The CC50 assay was performed first. The media in the 384-well cell culture plate was aspirated, and the wells were washed four times with 100 μL of PBS each, using a Biotek ELX405 plate washer. A volume of 50 μL of a solution containing 400 nM calcein AM (Anaspec, Fremont, CA) in 1×PBS was added to each well of the plate with a Biotek μFlow workstation. The plate was incubated for 30 min at room temperature before the fluorescence signal (excitation 490 nm, emission 520 nm) was measured with a Perkin-Elmer Envision plate reader. The EC50 assay was performed in the same wells as the CC50 assay. The calcein-PBS solution in the 384-well cell culture plate was aspirated with a Biotek ELX405 plate washer. A volume of 20 μL of Dual-Glo luciferase buffer (Promega, Madison, WI) was added to each well of the plate with a Biotek μFlow Workstation. The plate was incubated for 10 min at room temperature. A volume of 20 μL of a solution containing a 1:100 mixture of Dual-Glo Stop & Glo substrate (Promega, Madison, WI) and Dual-Glo Stop & Glo buffer (Promega, Madison, WI) was added to each well of the plate with a Biotek μFlow Workstation. The plate was then incubated at room temperature for 10 min before the luminescence signal was measured with a Perkin-Elmer Envision Plate Reader.

Q: Which CC50 at 3 days does the source give for `CCCCCCCCCCCCCCCC[C@H](COP(=O)(O)OC[C@@]1(C#N)O[C@@H](c2ccc3c(N)ncnn23)[C@H](O)[C@@H]1O)OCc1cc(F)cc(C#N)c1` [Compound 78, ((2R,3S,4R,5S)-5-(4-aminopyrrolo[2,1-f][1,2,4]triazin-7-yl)-2-cyano-3,4-dihydroxytetrahydrofuran-2-yl)methyl ((R)-2-((3-cyano-5-fluorobenzyl)oxy)octadecyl) hydrogen phosphate] here?
A: > 44400 nM

Q: For `CCCCCCCCCCCCCCCCCCOC[C@H](COP(=O)(O)OC[C@@]1(C#N)O[C@@H](c2ccc3c(N)ncnn23)[C@H](O)[C@@H]1O)Oc1cccc(C#N)n1` [Compound 21, ((2R,3S,4R,5S)-5-(4-aminopyrrolo[2,1-f][1,2,4]triazin-7-yl)-2-cyano-3,4-dihydroxytetrahydrofuran-2-yl)methyl ((R)-2-((6-cyanopyridin-2-yl)oxy)-3-(octadecyloxy)propyl) hydrogen phosphate], which CC50 at 3 days is on record?
A: > 44400 nM

Q: With `CCCCCCCCCCCCCCCCCCCC[C@H](COP(=O)(O)OC[C@@]1(C#N)O[C@@H](c2ccc3c(N)ncnn23)[C@H](O)[C@@H]1O)Oc1cccc(C#N)c1` [Compound 51, ((2R,3S,4R,5S)-5-(4-aminopyrrolo[2,1-f][1,2,4]triazin-7-yl)-2-cyano-3,4-dihydroxytetrahydrofuran-2-yl)methyl ((R)-2-(3-cyanophenoxy)docosyl) hydrogen phosphate] as the compound, how does the CC50 at 3 days read?
A: > 44400 nM

Q: Which CC50 at 3 days does the source give for `CCCCCCCCCCCCCCCCCOC[C@H](COP(=O)(O)OC[C@@]1(C#N)O[C@@H](c2ccc3c(N)ncnn23)[C@H](O)[C@@H]1O)OCc1cc(F)cc(C#N)c1` [Compound 53, ((2R,3S,4R,5S)-5-(4-aminopyrrolo[2,1-f][1,2,4]triazin-7-yl)-2-cyano-3,4-dihydroxytetrahydrofuran-2-yl)methyl ((R)-2-((3-cyano-5-fluorobenzyl)oxy)-3-(heptadecyloxy)propyl) hydrogen phosphate] here?
A: > 44400 nM

Q: Which CC50 at 3 days does the source give for `CCCCCCCCCCCCCCCCCC[C@@H](COP(=O)(O)OC[C@@]1(C#N)O[C@@H](c2ccc3c(N)ncnn23)[C@H](O)[C@@H]1O)OCc1cc(F)cc(C#N)c1` [Compound 37, ((2R,3S,4R)-5-(4-aminopyrrolo[2,1-f][1,2,4]triazin-7-yl)-2-cyano-3,4-dihydroxytetrahydrofuran-2-yl)methyl ((S)-2-((3-cyano-5-fluorobenzyl)oxy)icosyl) hydrogen phosphate] here?
A: > 44400 nM

Same assay, conditions: HCV replicon cells, calcein AM fluorescence, read-out: HCV Replicon 1B CC50 (nM) (per Ex. Q)

Q: For `CCCCCCCCCCCCCCCCC[C@@H](COP(=O)(O)OC[C@@]1(C#N)O[C@@H](c2ccc3c(N)ncnn23)[C@H](O)[C@@H]1O)OCc1cc(F)cc(C#N)c1` [Compound 74, ((2R,3S,4R)-5-(4-aminopyrrolo[2,1-f][1,2,4]triazin-7-yl)-2-cyano-3,4-dihydroxytetrahydrofuran-2-yl)methyl ((S)-2-((3-cyano-5-fluorobenzyl)oxy)nonadecyl) hydrogen phosphate], which CC50 at 3 days is on record?
A: > 44400 nM

Q: Which CC50 at 3 days does the source give for `CCCCCCCCCCCCCCCCCCCC[C@@H](COP(=O)(O)OC[C@@]1(C#N)O[C@@H](c2ccc3c(N)ncnn23)[C@H](O)[C@@H]1O)OCc1cc(F)cc(C#N)c1` [Compound 70, ((2R,3S,4R)-5-(4-aminopyrrolo[2,1-f][1,2,4]triazin-7-yl)-2-cyano-3,4-dihydroxytetrahydrofuran-2-yl)methyl ((S)-2-((3-cyano-5-fluorobenzyl)oxy)docosyl) hydrogen phosphate] here?
A: > 44400 nM
